Experimental data taken from patent US4057635A, “Carbamates of ergolines and therapeutic compositions therewith” (Simes Societa Italiana Medicinali e Sintetici S.p.A., priority 1973, dated 1977).

Assays:
dogs = test: peripheral vasoconstrictive hypertensive action in vivo, in dogs
[1] = test system: alpha-adrenergic receptors; test: stimulation of the alpha-adrenergic receptors; conditions: on the basis of the tests carried out
[2] = test system: smooth muscles of the vessels; test: antiserotoninic effects in vivo at the level of the smooth muscles of the vessels; conditions: e.v.
central nervous system [3] = test: antiserotoninic effects in vivo at the level of the central nervous system; conditions: s.c.
therapeutic index = type: in vivo
Text: The active concentrations are comprised between 2 and 20 micrograms per ml. […] The range of the active dosages is comprised between 20 and 100 micrograms/kilogram e.v. In vitro, the compound XXXVIII releases the muscles of the aorta of rabbits at concentrations of 50-100 micrograms/ml. The therapeutic index is favourable for an indication of the product as an antispastic of the gastro-intestinal system and the biliary tract.
(§1) The active dosages are comprised between 5 and 20 micrograms/ml in vitro, and from 50 to 500 micrograms/kilogram e.v. The acute toxicity of the compound LI has proven to be extremely low and consequently the therapeutic index is favorable for its use as a spasmolytic of the smooth muscles of the vessels and organs other than vessels.

central nervous system [4] = test: stimulation of the central nervous system; conditions: in vivo
bowel and vessel muscles [5] = test: spasmolytic properties on the bowel and vessel muscles in vitro
Text: as §1

bowel and vessel muscles [6] = test: spasmolytic properties on the bowel and vessel muscles in vivo
Text: as §1

acute toxicity = conditions: in vivo
Text: as §1

ileum = test: spasmolytic activity on isolated ileum of guinea pigs
Text: as §1
In addition, the compound IV acts on the trachea of guinea pigs as a releasing agent at the concentration of 0.5-1 microgram/ml. On the ileum of the same animals, as a spasmolytic at a concentration of 50-100 micrograms/ml and on the uterus and stomach of rats as an antiserotoninic at the concentration of 0.05-0.1 micrograms/ml. […] The compound on the basis of the pharmacological and toxicological properties which have been detected can be employed for the treatment of headaches.

deferent vessel = test: spasmolytic activity on isolated deferent vessel of rats
Text: as §1

[7] = test system: muscles of the peripheral vessels; test: spasmolytic effects in vivo on the muscles of the peripheral vessels; conditions: e.v.
Text: as §1

For CN(C)C(=O)OC[C@@H]1C=C2c3cccc4[nH]cc(c34)C[C@H]2N(C)C1 [compound IV], which “dose dependence of the vasoconstrictive hypertensive effect” value (dogs; dogs and cats, e.v.) is on record?
Its value is “proportional to the dosage”.

And the “peripheral vasoconstrictive hypertensive action” value (dogs; in vivo)?
Its value is “strong peripheral vasoconstrictive hypertensive action”.

What about the “action on the alpha-adrenergic receptors” value [1] of the same compound?
The value was “stimulant of the alpha-adrenergic receptors”.

And the “active dosages (antiserotoninic, smooth muscles of the vessels)” value [2]?
Its value is 5-10 micrograms/kilogram.

What about the “active dosages (antiserotoninic, central nervous system)” value (central nervous system [3]) of the same compound?
The value was 0.5-1 milligrams/kilograms.

What does the source list for CC(Cc1ccccc1)NC(=O)OC[C@@H]1C[C@@H]2c3cccc4[nH]cc(c34)C[C@H]2N(C)C1 (stereo partly drawn) [compound LI, D-6-methyl-8β-(α-methylphenethylaminocarbonyloxymethyl)-ergoline]?
therapeutic index (therapeutic index; as spasmolytic of the smooth muscles of the vessels and organs other than vessels): favorable; stimulating effects on the central nervous system (central nervous system [4]): lost the stimulating effects on the central nervous system; spasmolytic properties on the bowel and vessel muscles (bowel and vessel muscles [5]): retained; spasmolytic properties on the bowel and vessel muscles (bowel and vessel muscles [6]): retained; acute toxicity (acute toxicity): extremely low

For CC(Cc1ccccc1)NC(=O)OC[C@@H]1C=C2c3cccc4[nH]cc(c34)C[C@H]2N(C)C1 (stereo partly drawn) [compound XXV, D-6-methyl-8β-(α-methylphenethylaminocarbonyloxymethyl)-9,10-didehydroergoline], which “stimulating effects on the central nervous system” value (central nervous system [4]) is on record?
Its value is “interesting actions which stimulated the central nervous system”.

And the spasmolytic activity (ileum)?
The spasmolytic activity was “considerable spasmolytic activity”.

What about the spasmolytic activity (deferent vessel) of the same compound?
Its spasmolytic activity is “considerable spasmolytic activity”.

And the “dosages (spasmolytic effects on the muscles of the peripheral vessels)” value [7]?
Its value is 20-200 micrograms/kilogram.

With CN1C[C@H](COC(=O)N2CCCCCC2)C[C@@H]2c3cccc4[nH]cc(c34)C[C@H]21 [compound XXXVIII, D-6-methyl-8β-(perhydroazepinylcarbonyloxymethyl)-ergoline] as the compound, how does the therapeutic index (therapeutic index; as antispastic of the gastro-intestinal system and the biliary tract) read?
The therapeutic index was “favourable”.
